From patent US20240366617A1, “NOVEL CRYSTALLINE FORMS OF A NUCLEOSIDE COMPOUND AND SALTS THEREOF” (priority 2021, published 2024)
Converted amounts (≈) assume the structure as drawn. Like-named read-outs stand apart in the source and are kept apart here.

Legend:
[1] = Placement under 40° C./75% RH (open) conditions for one week (hydrochloride); format: physicochemical
[2] = Study on the stability of influence factors (40° C./75% RH open, 60° C. sealed, 7 days; HPLC and XRPD); format: physicochemical; settings: for Purity at day 7 (Peak area %) 40° C./75% RH: 40° C./75% RH (open); for Purity at day 7 (Peak area %) 40° C./75% RH / Purity at day 7 (Peak area %) 60° C.: 7 days, HPLC; for Purity at day 7 (Peak area %) 60° C.: 60° C. (sealed sample bottle); for physical and chemical stability / purity and crystalline structure: 60° C. and 40° C./75% RH for 7 days; for Purity at day 0 (Peak area %): day 0, HPLC
Source text: X-ray powder diffraction patterns were collected by using a zero-background sample disk on a German Bruker D8 Advance X-ray diffractometer equipped with an automatic sampler. The used radiation source is Cu k α (λ=1.5418 Å), and the light tube voltage is set at 40 KV and the light tube current is set at 40 mA. The divergent slit of X-rays is 0.6 mm. A proper amount of sample was placed in the center of the zero-background sample tray under the environmental condition, the sample was lightly pressed with a clean glass slide to obtain a flat plane, and the zero-background sample rack was fixed. Diffraction analysis of the sample was performed with a scanning step size of 0.02° (2θ) in the range of 3-40° (2θ). The software used for data collection is DIFFRAC.COMMANDER, and the data is analyzed and presented using DIFFRAC.EVA.
The instrument used for liquid chromatography analysis is Agilent HPLC 1260 series,
ATV-014 free base crystalline form I, ATV-014 hydrobromate crystalline form I, and ATV-014 p-toluenesulfonate crystalline form I were taken and placed at 40° C./75% RH (open) and 60° C. (sealed sample bottle) for 7 days. High-performance liquid chromatography and X-ray powder diffraction detection were performed at 0 and 7 days, respectively.

[3] = Solubility study in biological media (FaSSIF, FeSSIF, SGF, water) at 37° C.; format: physicochemical; settings: for solubility at 0.5 h / solubility at 2 h / solubility at 24 h: thermodynamic from solid
Experimental: According to the results of salt formation screening research, the solubilities of free base crystalline form I and p-toluenesulfonate crystalline form I at 0.5 hours, 2 hours, and 24 hours were measured in FaSSIF, FeSSIF, SGF, and water at 37° C.

DVS hygroscopicity test = format: physicochemical
[4] = Moisture absorption on placement under RH (open) conditions for one week; format: physicochemical; settings: for moisture absorption: one week
Source text: • (1) The compound ATV-014 hydrobromate crystalline form I provided herein is placed under 70% RH (open) conditions for one week, the moisture absorption is 0.2%, and under 90% RH (open) conditions for one week, the moisture absorption is 18.8%. • (2) The compound ATV-014 p-toluenesulfonate crystalline form I provided herein is placed under 30% RH (open) conditions for one week, the moisture absorption is 0.4%, and under 90% RH (open) conditions for one week, the moisture absorption is 0.5%.

[5] = Bioavailability of ATV014 compared to GS-441524
Source text: (§1) The compound ATV014 is a derivative of GS-441524.

[6] = Activity of ATV014 compared to GS-441524
Source text: as §1

[7] = compared with Remdesivir; cited from earlier work
[8] = in vivo in mice, compared with Remdesivir; cited from earlier work
[9] = after placement under 30% RH and 90% RH (open) for one week

Purity at day 7 (Peak area %) 40° C./75% RH [2]	Purity at day 7 (Peak area %) 60° C. [2] [%]	physical and chemical stability [2]	purity and crystalline structure [2]	Purity at day 0 (Peak area %) [2] [%]	pH (solution pH) ([3]; FaSSIF, pH 6.45, 0.5 h)	pH (solution pH) ([3]; FaSSIF, pH 6.45, 2 h)	pH (solution pH) ([3]; FaSSIF, pH 6.45, 24 h)	pH (solution pH) ([3]; FeSSIF, pH 4.95, 0.5 h)	pH (solution pH) ([3]; FeSSIF, pH 4.95, 2 h)	pH (solution pH) ([3]; FeSSIF, pH 4.95, 24 h)	pH (solution pH) ([3]; SGF, pH 1.24, 0.5 h)	pH (solution pH) ([3]; SGF, pH 1.24, 2 h)	pH (solution pH) ([3]; SGF, pH 1.24, 24 h)	pH (solution pH) ([3]; water, pH 5.53, 0.5 h)	pH (solution pH) ([3]; water, pH 5.53, 2 h)	pH (solution pH) ([3]; water, pH 5.53, 24 h)	hygroscopicity (DVS results) (DVS hygroscopicity test)	hygroscopic weight gain (DVS hygroscopicity test; 90% RH) [%]	Structure (SMILES)	solid form during / after the DVS test (DVS hygroscopicity test)	further results
–	–	–	–	–	–	–	–	–	–	–	–	–	–	–	–	–	–	–	Cl.N#C[C@@]1(c2ccc3c(N)ncnn23)O[C@H](COC(=O)C2CCCCC2)[C@@H](O)[C@H]1O [ATV-014 hydrochloride crystalline form]	–	crystalline structure and chemical purity [1]: have not changed; physical and chemical stability [1]: good
98.71%	98.62	good	remained unchanged	98.60	5.7	5.67	5.85	4.65	4.62	4.83	0.69	0.70	1.20	2.05	2.07	2.43	slight hygroscopicity	0.5	Cc1ccc(S(=O)(=O)O)cc1.N#C[C@@]1(c2ccc3c(N)ncnn23)O[C@H](COC(=O)C2CCCCC2)[C@@H](O)[C@H]1O.O	no change in the crystalline structure	solubility [3]: higher than 5 mg/mL; solubility in water relative to that of free base [3]: 30 times; solubility ([3]; pH 1.24): >5000 µg/mL; XPRD (solid form of the residue) ([3]; pH 4.95): free base; XPRD (solid form of the residue) ([3]; pH 5.53): free base; XPRD (solid form of the residue) ([3]; pH 6.45): free base; moisture absorption ([4]; 30% RH (open)): 0.4%; moisture absorption ([4]; 90% RH (open)): 0.5%; crystalline structure and chemical purity [4, 9]: have not changed; physical and chemical stability [4, 9]: good
–	–	–	–	–	–	–	–	–	–	–	–	–	–	–	–	–	–	–	N#C[C@@]1(c2ccc3c(N)ncnn23)O[C@H](COC(=O)C2CCCCC2)[C@@H](O)[C@H]1O [ATV014]	–	bioavailability [5]: better; activity [6]: better
98.09%	98.10	good	remained unchanged	98.12	6.45	6.44	6.58	4.76	4.74	4.96	0.95	0.9	1.26	7.24	6.45	6.5	–	–	N#C[C@@]1(c2ccc3c(N)ncnn23)O[C@H](COC(=O)C2CCCCC2)[C@@H](O)[C@H]1O [ATV-014 free base crystalline form I]	–	solubility ([3]; SGF, 37° C., 0.5-24 h, medium not named in the sentence for the p-toluenesulfonate): 2500 to 2900 µg/mL; solubility at 0.5 h ([3]; simulated gastric fluid, SGF, pH 1.24, 0.5 h, 37° C.): 2480 µg/mL (≈ 6180 µM); solubility at 2 h ([3]; simulated gastric fluid, SGF, pH 1.24, 2 h, 37° C.): 2560 µg/mL (≈ 6380 µM); solubility at 24 h ([3]; simulated gastric fluid, SGF, pH 1.24, 24 h, 37° C.): 2860 µg/mL (≈ 7120 µM); solubility at 0.5 h ([3]; FaSSIF, pH 6.45, 0.5 h, 37° C.): 7 µg/mL (≈ 17.4 µM); solubility at 2 h ([3]; FaSSIF, pH 6.45, 2 h, 37° C.): 10 µg/mL (≈ 24.9 µM); solubility at 24 h ([3]; FaSSIF, pH 6.45, 24 h, 37° C.): 21 µg/mL (≈ 52.3 µM); solubility at 0.5 h ([3]; FeSSIF, pH 4.95, 0.5 h, 37° C.): 14 µg/mL (≈ 34.9 µM); solubility at 2 h ([3]; FeSSIF, pH 4.95, 2 h, 37° C.): 19 µg/mL (≈ 47.3 µM); solubility at 24 h ([3]; FeSSIF, pH 4.95, 24 h, 37° C.): 20 µg/mL (≈ 49.8 µM); solubility at 0.5 h ([3]; water, pH 5.53, 0.5 h, 37° C.): 5 µg/mL (≈ 12.5 µM); solubility at 2 h ([3]; water, pH 5.53, 2 h, 37° C.): 6 µg/mL (≈ 14.9 µM); solubility at 24 h ([3]; water, pH 5.53, 24 h, 37° C.): 5 µg/mL (≈ 12.5 µM)
Liquefaction,	99.57	–	–	99.46	–	–	–	–	–	–	–	–	–	–	–	–	has hygroscopicity	18.8	Br.N#C[C@@]1(c2ccc3c(N)ncnn23)O[C@H](COC(=O)C2CCCCC2)[C@@H](O)[C@H]1O [ATV-014 hydrobromide crystalline form I]	transforms into an amorphous glassy solid	state of the sample ([2]; 40° C./75% RH for 7 days): the sample liquefies; purity and crystalline form ([2]; 60° C. for 7 days): remained unchanged; hygroscopic weight gain (DVS hygroscopicity test; 70% RH, after equilibrating for 30 to 120 minutes): 0.2%; moisture absorption ([4]; 70% RH (open)): 0.2%; moisture absorption ([4]; 90% RH (open)): 18.8%
–	–	–	–	–	–	–	–	–	–	–	–	–	–	–	–	–	–	–	N#C[C@@]1(c2ccc3c(N)ncnn23)O[C@H](CO)[C@@H](O)[C@H]1O [GS-441524]	–	safety [7]: better safety; antiviral effect [8]: superior to that of Remdesivir
